Test results taken from ChEMBL document CHEMBL6087464, “Design, Synthesis, and Biological Evaluation of 3,4-Dihydroisoquinolin-1(2H)-one Derivatives as Protein Arginine Methyltransferase 5 Inhibitors for the Treatment of Non-Hodgkin's Lymphoma” (J Med Chem, 2025).

Tests used:
[1] = molecular target: Protein arginine N-methyltransferase 1 (Homo sapiens, UniProt Q99873); assay: Inhibition of PRMT1 (unknown origin)
[2] = Volume of distribution in Sprague-Dawley rat at 2 mg/kg, iv by LC-MS/MS analysis; format: ADME, organism-based; details: in vivo
[3] = tested on: Z-138; assay: Induction of apoptosis in human Z138 cells assessed as late apoptotic cells at 0.4 nM incubated for 168 hrs by Annexin V-FITC/PI staining based flow cytometric analysis (reference value: 0.37 %); format: functional
[4] = AUC (0 to t) in Sprague-Dawley rat at 2 mg/kg, iv by LC-MS/MS analysis; format: ADME, organism-based; details: in vivo
[5] = tested on: Z-138; assay: Induction of apoptosis in human Z138 cells assessed as early apoptotic cells at 2.0 nM incubated for 168 hrs by Annexin V-FITC/PI staining based flow cytometric analysis (reference value: 1.68 %); format: functional
[6] = Tmax in Sprague-Dawley rat at 10 mg/kg, po by LC-MS/MS analysis; format: ADME, organism-based; details: Sprague-Dawley, in vivo, read-out: Tmax
[7] = molecular target: Protein arginine N-methyltransferase 8 (Homo sapiens, UniProt Q9NR22); assay: Inhibition of PRMT8 (unknown origin)
Sequence of Protein arginine N-methyltransferase 8 (Q9NR22 whole entry): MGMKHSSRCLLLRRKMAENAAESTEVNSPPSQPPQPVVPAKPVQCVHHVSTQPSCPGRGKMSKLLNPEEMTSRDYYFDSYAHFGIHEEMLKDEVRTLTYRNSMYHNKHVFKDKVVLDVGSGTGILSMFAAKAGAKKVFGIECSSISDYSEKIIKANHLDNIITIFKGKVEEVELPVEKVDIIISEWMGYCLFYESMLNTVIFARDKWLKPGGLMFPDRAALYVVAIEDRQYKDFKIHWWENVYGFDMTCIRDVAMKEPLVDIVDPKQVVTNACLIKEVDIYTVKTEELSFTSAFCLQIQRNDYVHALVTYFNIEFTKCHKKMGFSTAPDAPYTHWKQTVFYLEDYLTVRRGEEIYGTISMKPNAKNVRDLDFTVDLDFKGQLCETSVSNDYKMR

[8] = tested on: Z-138; assay: Induction of apoptosis in human Z138 cells assessed as early apoptotic cells at 10.0 nM incubated for 168 hrs by Annexin V-FITC/PI staining based flow cytometric analysis (reference value: 1.68 %); format: functional
[9] = tested on: Z-138; assay: Induction of apoptosis in human Z138 cells assessed as necrotic cells at 2.0 nM incubated for 168 hrs by Annexin V-FITC/PI staining based flow cytometric analysis (reference value: 3.54 %); format: functional
[10] = Oral bioavailability in Sprague-Dawley rat at 10 mg/kg by LC-MS/MS analysis; format: ADME, organism-based; details: in vivo
[11] = tested on: Z-138; assay: Induction of apoptosis in human Z138 cells assessed as necrotic cells at 50.0 nM incubated for 168 hrs by Annexin V-FITC/PI staining based flow cytometric analysis (reference value: 3.54 %); format: functional
[12] = tested on: Z-138; assay: Induction of apoptosis in human Z138 cells assessed as viable cells at 10.0 nM incubated for 168 hrs by Annexin V-FITC/PI staining based flow cytometric analysis (reference value: 94.4 %); format: functional; details: read-out: Activity
[13] = Hematological toxicity in human CD34-positive hematopoietic stem/progenitor cell supplemented with myeloid lineage assessed as reduction in cell viability incubated for 14 days by luminometric analysis; format: cell-based
[14] = Hematological toxicity in human CD34-positive hematopoietic stem/progenitor cell supplemented with megakaryocytic lineage assessed as reduction in cell viability incubated for 14 days by luminometric analysis; format: cell-based
[15] = tested on: Z-138; assay: Induction of apoptosis in human Z138 cells assessed as early apoptotic cells at 50.0 nM incubated for 168 hrs by Annexin V-FITC/PI staining based flow cytometric analysis (reference value: 1.68 %); format: functional
[16] = MRT (0 to t) in Sprague-Dawley rat at 10 mg/kg, po by LC-MS/MS analysis; format: ADME, organism-based; details: in vivo
[17] = tested on: Z-138; assay: Induction of apoptosis in human Z138 cells assessed as viable cells at 2.0 nM incubated for 168 hrs by Annexin V-FITC/PI staining based flow cytometric analysis (reference value: 94.4 %); format: functional; details: read-out: Activity
[18] = Cmax in Sprague-Dawley rat at 2 mg/kg, iv by LC-MS/MS analysis; format: ADME, organism-based; details: in vivo
[19] = molecular target: T1, Protein arginine N-methyltransferase 7 (Homo sapiens, UniProt Q9NVM4); assay: Inhibition of PRMT7 (unknown origin)
T1 sequence (Q9NVM4 whole entry): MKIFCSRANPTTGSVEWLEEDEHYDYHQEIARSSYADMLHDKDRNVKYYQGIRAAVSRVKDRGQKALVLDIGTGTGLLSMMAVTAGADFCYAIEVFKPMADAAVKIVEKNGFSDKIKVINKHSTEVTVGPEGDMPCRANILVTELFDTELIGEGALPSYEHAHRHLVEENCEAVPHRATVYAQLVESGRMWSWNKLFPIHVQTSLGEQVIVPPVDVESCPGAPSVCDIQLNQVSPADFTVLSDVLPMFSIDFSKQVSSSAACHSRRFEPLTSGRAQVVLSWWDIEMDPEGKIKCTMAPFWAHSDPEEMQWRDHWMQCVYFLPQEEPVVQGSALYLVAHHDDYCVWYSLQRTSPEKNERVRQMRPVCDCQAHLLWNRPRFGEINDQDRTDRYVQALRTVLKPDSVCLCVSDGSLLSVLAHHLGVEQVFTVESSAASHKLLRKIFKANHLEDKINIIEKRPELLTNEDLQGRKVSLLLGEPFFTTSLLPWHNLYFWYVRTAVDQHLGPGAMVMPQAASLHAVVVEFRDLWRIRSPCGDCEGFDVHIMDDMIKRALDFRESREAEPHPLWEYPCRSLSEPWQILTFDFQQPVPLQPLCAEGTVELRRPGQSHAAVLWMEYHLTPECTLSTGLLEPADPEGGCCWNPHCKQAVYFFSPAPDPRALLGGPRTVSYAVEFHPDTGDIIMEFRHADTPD

[20] = molecular target: T2, Histone-arginine methyltransferase CARM1 (Homo sapiens, UniProt Q86X55); assay: Inhibition of PRMT4 (unknown origin)
T2 sequence (Q86X55 whole entry): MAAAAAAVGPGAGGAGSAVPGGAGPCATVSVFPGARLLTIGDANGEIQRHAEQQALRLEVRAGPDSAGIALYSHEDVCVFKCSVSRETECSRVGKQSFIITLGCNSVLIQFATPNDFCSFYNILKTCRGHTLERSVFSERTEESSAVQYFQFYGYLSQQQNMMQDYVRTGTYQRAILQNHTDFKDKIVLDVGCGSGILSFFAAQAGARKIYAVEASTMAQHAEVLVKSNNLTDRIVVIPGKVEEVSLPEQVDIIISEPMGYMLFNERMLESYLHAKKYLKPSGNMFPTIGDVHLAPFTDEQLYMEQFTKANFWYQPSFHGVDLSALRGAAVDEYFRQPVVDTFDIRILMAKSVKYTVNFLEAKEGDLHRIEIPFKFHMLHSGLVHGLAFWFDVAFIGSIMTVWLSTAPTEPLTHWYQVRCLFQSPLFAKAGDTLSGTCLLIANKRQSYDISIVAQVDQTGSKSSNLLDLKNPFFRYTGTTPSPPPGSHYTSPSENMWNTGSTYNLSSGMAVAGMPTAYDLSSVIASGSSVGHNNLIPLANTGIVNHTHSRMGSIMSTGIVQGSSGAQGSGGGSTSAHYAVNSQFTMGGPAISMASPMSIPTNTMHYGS

[21] = tested on: Z-138; assay: Cell cycle arrest in human Z138 cells assessed as accumulation of cells at G0/G1 phase incubated for 168 hrs by RNase A/PI staining based flow cytometric analysis; format: functional; details: dose 0.4-50 nM
[22] = Clearance in Sprague-Dawley rat at 2 mg/kg, iv by LC-MS/MS analysis; format: ADME, organism-based; details: in vivo
[23] = molecular target: Protein arginine N-methyltransferase 6 (Homo sapiens, UniProt Q96LA8); assay: Inhibition of PRMT6 (unknown origin)
Sequence of Protein arginine N-methyltransferase 6 (Q96LA8 whole entry): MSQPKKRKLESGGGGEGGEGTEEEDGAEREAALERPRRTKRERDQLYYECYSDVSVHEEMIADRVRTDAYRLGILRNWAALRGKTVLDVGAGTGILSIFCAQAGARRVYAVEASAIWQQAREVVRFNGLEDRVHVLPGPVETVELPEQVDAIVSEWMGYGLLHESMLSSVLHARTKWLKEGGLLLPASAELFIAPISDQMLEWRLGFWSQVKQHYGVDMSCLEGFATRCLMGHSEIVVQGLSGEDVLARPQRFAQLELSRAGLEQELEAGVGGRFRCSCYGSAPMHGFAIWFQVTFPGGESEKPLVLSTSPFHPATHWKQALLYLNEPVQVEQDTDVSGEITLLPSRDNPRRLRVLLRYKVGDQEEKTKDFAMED

[24] = molecular target: Voltage-gated inwardly rectifying potassium channel KCNH2 (Homo sapiens, UniProt Q12809); assay: Inhibition of human ERG; format: toxicity
Sequence of Voltage-gated inwardly rectifying potassium channel KCNH2 (Q12809 whole entry): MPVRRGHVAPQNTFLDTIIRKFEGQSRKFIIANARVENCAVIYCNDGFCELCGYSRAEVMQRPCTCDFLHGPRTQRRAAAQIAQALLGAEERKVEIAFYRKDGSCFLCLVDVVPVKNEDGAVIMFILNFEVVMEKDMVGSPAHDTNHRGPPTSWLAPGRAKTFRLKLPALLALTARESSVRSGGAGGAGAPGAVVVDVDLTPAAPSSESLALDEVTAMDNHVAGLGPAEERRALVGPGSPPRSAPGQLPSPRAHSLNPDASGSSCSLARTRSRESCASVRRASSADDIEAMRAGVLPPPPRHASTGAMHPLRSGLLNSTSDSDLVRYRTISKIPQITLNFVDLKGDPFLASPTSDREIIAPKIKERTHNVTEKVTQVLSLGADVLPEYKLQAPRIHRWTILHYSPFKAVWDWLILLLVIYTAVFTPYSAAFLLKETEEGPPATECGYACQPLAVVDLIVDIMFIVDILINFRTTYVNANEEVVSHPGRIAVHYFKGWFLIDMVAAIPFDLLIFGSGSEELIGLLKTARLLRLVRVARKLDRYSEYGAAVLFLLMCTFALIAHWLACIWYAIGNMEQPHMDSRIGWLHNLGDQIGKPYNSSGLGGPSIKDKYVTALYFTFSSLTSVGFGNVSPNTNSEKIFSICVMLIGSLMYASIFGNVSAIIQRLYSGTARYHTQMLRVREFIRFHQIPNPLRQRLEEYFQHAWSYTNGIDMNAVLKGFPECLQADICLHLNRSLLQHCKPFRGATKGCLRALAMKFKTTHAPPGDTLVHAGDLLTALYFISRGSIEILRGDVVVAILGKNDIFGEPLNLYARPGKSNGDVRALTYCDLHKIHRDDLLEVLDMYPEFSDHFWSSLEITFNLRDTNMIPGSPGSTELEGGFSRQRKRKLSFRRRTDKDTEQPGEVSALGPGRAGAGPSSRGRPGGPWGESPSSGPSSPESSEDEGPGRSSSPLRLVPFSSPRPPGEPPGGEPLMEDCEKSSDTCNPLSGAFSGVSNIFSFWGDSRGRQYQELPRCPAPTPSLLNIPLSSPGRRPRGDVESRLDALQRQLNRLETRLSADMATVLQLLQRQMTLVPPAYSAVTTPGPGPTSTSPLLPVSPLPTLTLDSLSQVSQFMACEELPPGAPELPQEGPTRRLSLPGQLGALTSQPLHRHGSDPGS

[25] = Hematological toxicity in human CD34-positive hematopoietic stem/progenitor cell supplemented with erythroid lineage assessed as reduction in cell viability incubated for 14 days by luminometric analysis; format: cell-based

Sequence of Protein arginine N-methyltransferase 1 (Q99873 whole entry): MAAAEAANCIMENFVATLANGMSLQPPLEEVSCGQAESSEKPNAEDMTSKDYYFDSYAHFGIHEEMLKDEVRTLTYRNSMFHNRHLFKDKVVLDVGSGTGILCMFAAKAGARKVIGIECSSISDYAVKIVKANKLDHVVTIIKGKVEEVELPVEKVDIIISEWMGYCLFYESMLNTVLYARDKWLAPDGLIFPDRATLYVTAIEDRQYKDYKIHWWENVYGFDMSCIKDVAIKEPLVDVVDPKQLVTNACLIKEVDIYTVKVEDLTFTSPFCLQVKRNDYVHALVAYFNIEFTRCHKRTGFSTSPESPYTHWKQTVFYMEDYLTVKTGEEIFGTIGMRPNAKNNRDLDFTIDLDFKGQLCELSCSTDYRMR

SMILES	IC50 [1] [µM]	Vd [2] [L/kg]	Activity [3] [%]	AUC(0-t) [4] [ng·h/mL]	Activity [5] [%]	Tmax [6] [h]	IC50 [7] [µM]	Activity [8] [%]	Activity [9] [%]	bioavailability [10] [%]	Activity [11] [%]	viability at 0.01 µM [12] [%]	IC50 at 14 days [13] [µM]	IC50 at 14 days [14] [µM]	Activity [15] [%]	MRT last [16] [h]	viability at 0.002 µM [17] [%]	Cmax [18] [ng/mL]	IC50 [19] [µM]	IC50 [20] [µM]	further results
CC(=O)N1CC2(CC(Nc3cc4c(cn3)C3(CC3)CN(C[C@H](O)CN3CCc5ccccc5C3)C4=O)C2)C1	> 10	1.4	0.44	771	22	0.1	> 10	54.5	6.68	26.7	2.87	9.21	0.511	0.106	78.2	1.7	62.1	1370	> 10	> 10	Activity [21]: Dose-dependent-effect; clearance [22]: 41.7 mL/min/kg; IC50 [23]: > 10 µM; IC50 [24]: > 15 µM; IC50 at 14 days [25]: 0.216 µM
CC(=O)N1CCC(Nc2cc(C(=O)NC[C@H](O)CN3CCc4ccccc4C3)ncn2)CC1 [PEMRAMETOSTAT]	> 10	1.4	0.33	598	1.97	1.3	> 10	7.12	2.64	13.5	5.13	86	0.222	0.055	34.1	1.1	95.1	1830	> 10	> 10	Activity [21]: Dose-dependent-effect; clearance [22]: 56.7 mL/min/kg; IC50 [23]: > 10 µM; IC50 [24]: > 15 µM; IC50 at 14 days [25]: 0.043 µM
